In US8426447B2, “Spiro-tricyclic ring compounds as beta-secretase modulators and methods of use” (Amgen Inc., priority 2008, dated 2013):
One block for each molecule: values may come before it.

Assays:
BACE1 [1] = molecular target: T1, BACE1 (Homo sapiens, UniProt P56817); assay: In Vitro BACE Cell-based Assay (HEK cell assay): Aβ40 in conditioned medium of cells stably expressing Amyloid Precursor Protein, sandwich ELISA; conditions: read-out: HEK cell assay
Method in brief: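 Conditioned medium Aβ40 by ELISA: pAb40 capture 3 h 4° C., biotin-6E10 detection 2 h 4° C., Streptavidin-Europium TRF. IC50 fitted from % control.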

BACE1 [2] = molecular target: T1, BACE1; assay: In Vitro Enzymatic BACE FRET (Fluorescence Resonance Energy Transfer) Assay; format: biochemical; conditions: read-out: BACE1 FRET assay
Method in brief: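 Run in 0.05 M acetate pH 4.2 with 10% DMSO final and 100 uM genapol detergent below its CMC. Reaction was started with 50 nM FRET peptide substrate (fluorophore and quencher flanking the BACE cleavage site), incubated one hour, stopped with Tris to neutral pH, and fluorescence read.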

[3] = HEK cell-based assay, Aβ40 in conditioned medium, IC50 class symbols
[4] = in vitro BACE FRET enzyme assay, IC50 class symbols

T1 sequence (P56817 46-501, species assumed): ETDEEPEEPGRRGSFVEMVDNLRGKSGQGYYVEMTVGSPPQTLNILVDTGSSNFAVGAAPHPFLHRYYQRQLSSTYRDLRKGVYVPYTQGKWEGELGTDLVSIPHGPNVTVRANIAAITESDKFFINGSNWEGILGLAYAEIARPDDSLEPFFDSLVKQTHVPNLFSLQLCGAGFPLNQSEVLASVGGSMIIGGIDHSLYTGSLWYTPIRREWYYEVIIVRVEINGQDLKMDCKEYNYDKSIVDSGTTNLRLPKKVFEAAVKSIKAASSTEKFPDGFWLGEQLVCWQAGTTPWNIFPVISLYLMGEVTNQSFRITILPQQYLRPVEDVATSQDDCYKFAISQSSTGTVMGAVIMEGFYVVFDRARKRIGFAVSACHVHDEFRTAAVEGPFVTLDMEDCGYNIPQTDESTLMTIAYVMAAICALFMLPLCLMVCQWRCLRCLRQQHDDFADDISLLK

IC50 (BACE1 [1]; HEK cells): < 0.1 µM | IC50 (BACE1 [2]): < 0.1 µM
Structure (SMILES): CC1(C)CC(c2cc(F)c3c(c2)[C@]2(COC(N)=N2)c2cc(-c4cncnc4)ccc2O3)=CCO1 [compound 465]

IC50 (BACE1 [1]): > 5 µM | IC50 (BACE1 [2]): > 5 µM
Structure (SMILES): CC(C)(C)OC(=O)/C=C/c1ccc2c(c1)[C@]1(COC(N)=N1)c1cc(Br)ccc1O2 [compound 996]

IC50 (BACE1 [1]; Table 1, Aβ40, 24 h incubation): 1 to 5 µM | IC50 (BACE1 [2]; Table 1): > 5 µM
Structure (SMILES): Cc1ccc2c(c1)Oc1ccc(-c3cccc(OC(F)(F)F)c3)cc1[C@]21COC(N)=N1 [Example 24, (4S)-6′-methyl-2′-(3-(trifluoromethoxy)phenyl)spiro[1,3-oxazole-4,9′-xanthen]-2-amine]

IC50 (BACE1 [1]; Table III, IC50's in uM ranges): < 0.1 µM | IC50 (BACE1 [2]; Table III, IC50's in uM ranges): < 0.1 µM
Structure (SMILES): NC1=N[C@]2(CO1)c1cc(CCCCO)ccc1Oc1ccc(-c3cccnc3)cc12 [compound 194]

IC50 (BACE1 [1]; Table 1, Aβ40, 24 h incubation): < 0.1 µM | IC50 (BACE1 [2]; Table 1): < 0.1 µM
Structure (SMILES): CCCOc1ccc2c(c1)[C@]1(COC(N)=N1)c1cc(-c3cncnc3)ccc1O2 [Example 5, (4S)-2′-propoxy-7′-(5-pyrimidinyl)spiro[1,3-oxazole-4,9′-xanthen]-2-amine]

IC50 (BACE1 [1]): 0.1 to 1 µM | IC50 (BACE1 [2]): < 0.1 µM
Structure (SMILES): CC(C)(C)COc1ccc2c(c1)[C@]1(COC(N)=N1)c1cc(C3CC3(C)C)ccc1O2 (stereo partly drawn) [compound 754]

IC50 (BACE1 [1]; Table IV, class symbols): 0.1 to 1 µM | IC50 (BACE1 [2]; Table IV, class symbols): 0.1 to 1 µM
Structure (SMILES): NC1=N[C@@]2(CO1)c1ccccc1Oc1ccc(-c3cncnc3)cc12 [compound 844]

IC50 (BACE1 [1]; Table IV, class symbols): 1 to 5 µM | IC50 (BACE1 [2]; Table IV, class symbols): 0.1 to 1 µM
Structure (SMILES): NC1=N[C@]2(CO1)c1ccccc1Oc1ccc(-c3c(F)ccnc3F)cc12 [compound 599]

IC50 (BACE1 [1]; Table II, Aβ40, 24 h incubation): 1 to 5 µM | IC50 (BACE1 [2]; Table II): 0.1 to 1 µM
Structure (SMILES): CC(C)(C)COc1ccc2c(c1)C1(COC(N)=N1)c1cc(Br)ccc1O2 (stereo not drawn) [Example 57, 2′-bromo-7′-(2,2-dimethylpropoxy)spiro[1,3-oxazole-4,9′-xanthen]-2-amine]

IC50 (BACE1 [1]; Table IV, class symbols): 0.1 to 1 µM | IC50 (BACE1 [2]; Table IV, class symbols): 1 to 5 µM
Structure (SMILES): NC1=N[C@@]2(CO1)c1ccccc1Oc1ccc(-c3cc(F)cnc3Cl)cc12 [compound 619]

IC50 (BACE1 [1]; Table IV, class symbols): < 0.1 µM | IC50 (BACE1 [2]; Table IV, class symbols): < 0.1 µM
Structure (SMILES): NC1=N[C@@]2(CO1)c1cc(-c3cccnc3)ccc1Oc1cnc(C3=CCOCC3)cc12 [compound 849]

IC50 (BACE1 [1]): < 0.1 µM | IC50 (BACE1 [2]): < 0.1 µM
Structure (SMILES): CC(C)(C)COc1ccc2c(n1)[C@]1(COC(N)=N1)c1cc(-c3cncnc3)ccc1O2 [compound 733]

IC50 (BACE1 [1]; HEK cells): 0.1 to 1 µM | IC50 (BACE1 [2]): 0.1 to 1 µM
Structure (SMILES): Cc1ccc(-n2ccc3c(c2=O)[C@]2(COC(N)=N2)c2cc(-c4cccnc4)ccc2O3)cc1 [compound 504]

IC50 (BACE1 [1]; Table III, IC50's in uM ranges): 1 to 5 µM | IC50 (BACE1 [2]; Table III, IC50's in uM ranges): > 5 µM
Structure (SMILES): COc1ccc2c(c1)[C@@]1(COC(N)=N1)c1cc(C(=O)N3CCCC3)ccc1O2 [Example 127, (R)-(2-amino-2′-methoxy-5H-spiro[oxazole-4,9′-xanthene]-7′-yl)(pyrrolidin-1-yl)methanone]

IC50 (BACE1 [1]; Table IV, class symbols): 0.1 to 1 µM | IC50 (BACE1 [2]; Table IV, class symbols): < 0.1 µM
Structure (SMILES): Cn1cc(-c2ccc3c(c2)[C@]2(COC(N)=N2)c2cc(-c4cccnc4)ccc2O3)ccc1=O [compound 611]

IC50 (BACE1 [1]): 1 to 5 µM | IC50 (BACE1 [2]): 0.1 to 1 µM
Structure (SMILES): CN(C)c1ncc(-c2ccc3c(c2)[C@]2(COC(N)=N2)c2cc(OCC(C)(C)C)ccc2O3)cn1 [compound 780]

IC50 (BACE1 [1]; Table III, IC50's in uM ranges): < 0.1 µM | IC50 (BACE1 [2]; Table III, IC50's in uM ranges): < 0.1 µM
Structure (SMILES): Cc1cncc(-c2ccc3c(c2)[C@@]2(COC(N)=N2)c2cc(OCC(C)(C)O)ccc2O3)c1 [compound 223]

IC50 (BACE1 [1]; HEK cells): < 0.1 µM | IC50 (BACE1 [2]): < 0.1 µM
Structure (SMILES): CC(C)(F)COc1cc2c(cc1F)Oc1ccc(-c3cncnc3)cc1[C@@]21COC(N)=N1 [compound 530]

IC50 (BACE1 [1]): 1 to 5 µM | IC50 (BACE1 [2]): 1 to 5 µM
Structure (SMILES): CC(C)(C)COc1ccc2c(n1)[C@]1(COC(N)=N1)c1cc(Br)ccc1O2 [compound 735]

IC50 (BACE1 [1]; HEK cells): < 0.1 µM | IC50 (BACE1 [2]): < 0.1 µM
Structure (SMILES): NC1=N[C@@]2(CO1)c1cc(-c3ccccc3F)ccc1Oc1ncc(C3=CCOCC3)cc12 [compound 488]

IC50 (BACE1 [1]; [3]): < 0.1 µM | IC50 (BACE1 [2]; [4]): < 0.1 µM
Structure (SMILES): Cc1cnc(F)c(-c2ccc3c(c2)[C@@]2(COC(N)=N2)c2cc(C4CCOCC4)ncc2O3)c1 [compound 332]

IC50 (BACE1 [1]; Table IV, class symbols): > 5 µM | IC50 (BACE1 [2]; Table IV, class symbols): > 5 µM
Structure (SMILES): NC1=N[C@]2(CO1)c1cc(Br)ccc1Oc1ccc(Cl)nc12 [compound 856]

IC50 (BACE1 [1]): 1 to 5 µM | IC50 (BACE1 [2]): 0.1 to 1 µM
Structure (SMILES): CC(C)(C)OC(=O)/C=C/c1ccc2c(c1)[C@]1(COC(N)=N1)c1cc(-c3cncnc3)ccc1O2 [compound 994]

IC50 (BACE1 [1]; Table IV, class symbols): 1 to 5 µM | IC50 (BACE1 [2]; Table IV, class symbols): 0.1 to 1 µM
Structure (SMILES): CC(C)(C)C#Cc1ccc2c(c1)[C@]1(COC(N)=N1)c1cc(C#CC(C)(C)C)ncc1O2 [compound 847]

IC50 (BACE1 [1]): < 0.1 µM | IC50 (BACE1 [2]): < 0.1 µM
Structure (SMILES): COC(C)(C)C#Cc1ccc2c(c1)[C@@]1(COC(N)=N1)c1cc(C#CC(C)(C)OC)cnc1O2 [compound 934]

IC50 (BACE1 [1]): > 5 µM | IC50 (BACE1 [2]): 0.1 to 1 µM
Structure (SMILES): CC(C)(C)COc1ccc2c(c1)[C@]1(COC(N)=N1)c1cc(-c3ccc(Br)nn3)ccc1O2 [compound 970]

IC50 (BACE1 [1]; HEK cells): < 0.1 µM | IC50 (BACE1 [2]): < 0.1 µM
Structure (SMILES): NC1=N[C@@]2(CO1)c1cc(-c3cncnc3)ccc1Oc1ccc(N3CC(F)(F)C3)cc12 [compound 508]

IC50 (BACE1 [1]; Table IV, class symbols): > 5 µM | IC50 (BACE1 [2]; Table IV, class symbols): > 5 µM
Structure (SMILES): NC1=N[C@@]2(CO1)c1cc(-c3cccnc3)ccc1Oc1ncccc12 [compound 594]

IC50 (BACE1 [1]; [3]): 0.1 to 1 µM | IC50 (BACE1 [2]; [4]): < 0.1 µM
Structure (SMILES): COCC(=O)Nc1ccc2c(c1)[C@@]1(COC(N)=N1)c1cc(OCC(C)(C)C)ccc1O2 [compound 375]

Structure (SMILES): CC(C)(C)CCOc1nccc2c1[C@]1(COC(N)=N1)c1cc(-c3cncnc3)ccc1O2 [compound 984]
IC50 (BACE1 [1]): 0.1 to 1 µM | IC50 (BACE1 [2]): 0.1 to 1 µM

IC50 (BACE1 [1]; [3]): < 0.1 µM | IC50 (BACE1 [2]; [4]): < 0.1 µM
Structure (SMILES): NC1=N[C@@]2(CO1)c1cc(-c3cccnc3F)ccc1Oc1c(F)cc(N3C[C@@H]4C[C@H]3CO4)cc12 [compound 416]

IC50 (BACE1 [1]; Table IV, class symbols): 1 to 5 µM | IC50 (BACE1 [2]; Table IV, class symbols): 0.1 to 1 µM
Structure (SMILES): CC(C)(C)COc1ccc2c(c1)[C@]1(COC(N)=N1)c1cc(C(C)(C)O)ccc1O2 [compound 827]

IC50 (BACE1 [1]; Table IV, class symbols): 0.1 to 1 µM | IC50 (BACE1 [2]; Table IV, class symbols): < 0.1 µM
Structure (SMILES): COc1ccc2c(c1)[C@]1(COC(N)=N1)c1c(ccc(-c3cncnc3)c1F)O2 [compound 814]

IC50 (BACE1 [1]; [3]): 0.1 to 1 µM | IC50 (BACE1 [2]; [4]): 0.1 to 1 µM
Structure (SMILES): CC(C)C[C@H]1CN(c2ccc3c(c2)[C@]2(COC(N)=N2)c2cc(-c4cccnc4)ccc2O3)CCO1 [compound 359]

IC50 (BACE1 [1]; HEK cells): > 5 µM | IC50 (BACE1 [2]): > 5 µM
Structure (SMILES): NC1=N[C@@]2(CO1)c1cc(-c3cncnc3)ccc1Oc1cccnc12 [compound 525]

IC50 (BACE1 [1]; Table IV, class symbols): < 0.1 µM | IC50 (BACE1 [2]; Table IV, class symbols): < 0.1 µM
Structure (SMILES): CC(C)(O)C#Cc1cnc2c(c1)[C@]1(COC(N)=N1)c1cc(-c3ccc(F)nc3)ccc1O2 [compound 794]

IC50 (BACE1 [1]; [3]): 1 to 5 µM | IC50 (BACE1 [2]; [4]): 0.1 to 1 µM
Structure (SMILES): COc1ccc2c(c1)[C@@]1(COC(N)=N1)c1cc(C3=CCOCC3)cc(F)c1O2 [compound 364]

IC50 (BACE1 [1]; HEK cells): < 0.1 µM | IC50 (BACE1 [2]): < 0.1 µM
Structure (SMILES): Cn1cc(-c2cc(F)c3c(c2)[C@]2(COC(N)=N2)c2cc(-c4cncnc4)ccc2O3)cn1 [compound 511]

IC50 (BACE1 [1]): > 5 µM | IC50 (BACE1 [2]): > 5 µM
Structure (SMILES): NC1=N[C@@]2(CO1)c1cc(-c3cncnc3)ccc1Oc1cc(OCC(F)(F)F)c(F)cc12 [compound 987]

IC50 (BACE1 [1]; Table IV, class symbols): < 0.1 µM | IC50 (BACE1 [2]; Table IV, class symbols): < 0.1 µM
Structure (SMILES): COc1ccc(-c2ccc3c(c2)[C@]2(COC(N)=N2)c2cc(-c4cncnc4)ccc2O3)cn1 [compound 829]

IC50 (BACE1 [1]; Table III, IC50's in uM ranges): > 5 µM | IC50 (BACE1 [2]; Table III, IC50's in uM ranges): 0.1 to 1 µM
Structure (SMILES): Cc1n[nH]cc1-c1ccc2c(c1)[C@@]1(COC(N)=N1)c1cc(OCC(C)(C)C)ccc1O2 [Example 129, (S)-2′-(3-methyl-1H-pyrazol-4-yl)-7′-(neopentyloxy)-5H-spiro[oxazole-4,9′-xanthen]-2-amine 2,2,2-trifluoroacetate]

IC50 (BACE1 [1]): 0.1 to 1 µM | IC50 (BACE1 [2]): 0.1 to 1 µM
Structure (SMILES): COC(C)(C)C#Cc1ccc2c(c1)[C@@]1(COC(N)=N1)c1cc(OCC(C)(C)O)ccc1O2 [compound 768]
